In patent US20120329854A1, “Methods and Compounds for the Diagnosis and Treatment for Cancer” (UNIVERSITÄTSKLINIKUM FREIBURG, priority 2009, published 2012):
“Also recorded” adds a separate entry of the source.

What was measured:
Format in all cases: cell-based, human
[1] = tested on: AR; assay: Western blot analysis of endogenous AR in LNCaP cells; details: siRNA transfection (FIG. 3c, 3e right panels)
Description: Experiments were performed as described^2. Western blots were decorated as indicated.

[2] = tested on: AR, LSD1, PKCβI on AR-regulated genes; assay: ChIP for occupancy of AR, LSD1 and PKCβI on AR target promoters in LNCaP cells
Description: (§1) ChIP and Re-ChIP experiments were performed as described^3. LNCaP cells were cultured for 15 min (ChIP) or 210 min (Re-ChIP) in the presence or absence of 1×10^−8M R1881 as indicated. Three days before harvesting, cells were transfected with siRNA (control for PKCβI: 5′-[…]-3′(SEQ ID NO 3); PKCβI: 5′-[…]-3′ (SEQ ID NO 4) (FIG. 3 b, c, f-i); control for PRK1: 5′-[…]-3′ (SEQ ID NO 14); PRK1: 5′-[…]-3′ (SEQ ID NO: 15) (FIG. 3 d, e); Invitrogen) using RNAifect (Qiagen) following the manufacturer's instructions. Immunoprecipitation was performed with specific antibodies (α-AR #06-680 lot 33529 (Upstate Biotechnology), α-H3K4me1 #ab8895 lot 535654, α-H3T6ph #ab14102 lot 481643, α-H3 #ab1791 lot 172452, α-PKCβI S660ph #ab23513 lot 596904 (Abcam), α-PKCβI (C-16) #sc-209 lot 481643, (Santa Cruz), α-H3K4me2 #cs-035-100 lot A391001 (Diagenode), α-PRK1^3, and α-LSD1^2) on protein A-Sepharose 4B (GE-Healthcare). For PCR, 2 μl out of 50 μl DNA extract was used. PCR primers for FKBP5 (+351/+443), KLK2 (−343/−90), SCN1A, SCN2A, GAPDH, and U6 were described previously^1, 2, 6, 11.

[3] = tested on: H3T6ph at the AREs of the KLK2 and FKBP5 promoters; assay: ChIP with α-H3T6ph antibody in LNCaP cells; details: for androgen-induced phosphorylation of H3T6 at the AREs of the KLK2 and FKBP5 promoters upon knockdown: siRNA transfection three days before harvesting, 1×10^−8 M R1881, versus control siRNA
Description: as §1

[4] = tested on: H3K4me2 and H3K4me1 at the KLK2 and FKBP5 promoters; assay: ChIP with α-H3K4me2 and α-H3K4me1 antibodies in LNCaP cells
Description: as §1

[5] = tested on: PKCβI S660ph at the KLK2 and FKBP5 promoters; assay: ChIP with α-PKCβI S660ph antibody in LNCaP cells
Description: as §1

5′-CAUUGUCCUCGUAAGAGAUGCUAAA-3′ (listed as RNA, chemistry not given here) [siRNA directed against PKCβI]
levels of endogenous AR upon knockdown [1]: does not affect | ligand-dependent recruitment of AR and presence of LSD1 on AR-regulated genes upon knockdown ([2]; siRNA transfection (FIG. 3b, c)): does neither affect | androgen-induced phosphorylation of H3T6 at the AREs of the KLK2 and FKBP5 promoters upon knockdown [3]: blocked; also recorded: blunts | H3K4me2 and H3K4me1 levels at the KLK2 and FKBP5 promoters upon knockdown ([4]; in the absence of R1881 (FIG. 3f, g)): Elevated levels | H3K4me2 and H3K4me1 levels at the KLK2 and FKBP5 promoters upon knockdown ([4]; in the presence of R1881 (FIG. 3f, g)): reduces H3K4me2 and H3K4me1 levels to those observed in the absence of R1881

5′-GAACAUGAUCCAGACCUACAGCAAU-3′ (listed as RNA, chemistry not given here) [siRNA directed against PRK1, siRNA against Protein-kinase-C-related kinase 1 (PRK1), Invitrogen, reference compound]
levels of endogenous AR upon knockdown [1]: does neither affect | presence of PKCβI on AR target promoters upon knockdown ([2]; siRNA transfection (FIG. 3d, e)): does neither affect | androgen-induced phosphorylation of H3T6 at the AREs of the KLK2 and FKBP5 promoters upon knockdown [3]: abolished | ligand-dependent activation of PKCβI (S660ph) upon knockdown ([5]; siRNA transfection, with R1881 (FIG. 3d, e)): blocked

C[C@]1(O)CC[C@H]2[C@@H]3CCC4=CC(=O)CCC4=C3C=C[C@@]21C [R1881, reference compound]
phosphorylation of H3T6 at the AREs of the KLK2 and FKBP5 promoters on addition of ligand ([3]; 1×10^−8 M R1881 versus absence of ligand (FIG. 3b, c)): results in phosphorylation of H3T6 | levels of H3K4me2 and H3K4me1 at the KLK2 and FKBP5 promoters on addition of ligand ([4]; R1881 versus absence of ligand (FIG. 3f, g)): increased | phosphorylation at S660 of PKCβI at the KLK2 and FKBP5 promoters on addition of ligand ([5]; R1881 versus absence of ligand (FIG. 3b, c)): androgen-induced phosphorylation at 5660 of PKCβI
